The values below come from patent publication US10561638B2, “Methods for treating dependence” (Biotie Therapies, Inc., priority 2007, dated 2020).

One data set concerns anesthetized SHRs. In words: Acute i.v. treatment of anesthetized SHRs, blood pressure and renal function. The note with it: 3.0 mg/kg i.v. It counts as in vivo, spontaneously hypertensive rats. From the text:
The calculated renal vascular resistance was decreased following dosing. An attempt was made using the DA-1 antagonist SCH-23390 to assess if the renal vasodilator effects of nepicastat were mediated by DA-1 receptors.

Data set [1] concerns plasma noradrenaline, dopamine and epinephrine. In words: Plasma catecholamines in beagle dogs, 2 mg/kg b.i.d. for 15 days. It counts as in vivo. The method, then: Male beagle dogs were randomized to be orally dosed with either empty capsules (control) or nepicastat (2 mg·kg^−1, po, b.i.d.) for 15 days. Daily venous blood samples were drawn, six hours after the first dose, for measurement of plasma concentrations of dopamine and noradrenaline. The samples were collected in tubes containing heparin and glutathione, centrifuged at −4° C. and the separated plasma was stored at −70° C. until analysis. […] When compared to the control group, nepicastat (2 mg·kg^−1, b.i.d, po) produced significant decreases in plasma concentrations of noradrenaline and increases in plasma concentrations of dopamine and dopamine/noradrenaline ratio.
The chronic effects of nepicastat (14.5 day treatment) on the plasma DA/NE ratio were investigated in normal dogs. Animals were randomized to receive, orally, either placebo (empty capsule) or nepicastat (2 mg/kg, b.i.d) for 14.5 days. Daily blood samples were drawn, 6 h after the first dose, for the measurement of plasma concentrations of DA and NE. The samples were collected in tubes containing heparin and glutathione, centrifuged at −4° C. and stored at −70° C. until analysis.
Male Beagle dogs (Marshall farms, North Rose, N.Y.) weighing between 9-16 kg were used in the study. The animals were allowed water ad libitum and given food once daily at ˜10.00 AM. Animals were randomly assigned to one of the following treatment groups (n=8/group): placebo (empty capsule), or nepicastat at 2 mg/kg b.i.d (4 mg/kg/day). Each animal received 2 doses daily, morning and afternoon (8-10 hours apart). Daily blood samples (10 ml) were drawn 6 h after the AM dose for measurement of plasma levels of nepicastat and catecholamines. The blood was collected in tubes containing heparin and glutathione and centrifuged at −4° C. within 1 h of collection. The plasma was separated and divided into two samples, one for the measurement of plasma catecholamines and the other for analysis of nepicastat.
Plasma norepinephrine (NE), dopamine (DA) and epinephrine (EPI) were analyzed by HPLC using electrochemical detection. Plasma concentration of nepicastat was determined by HPLC using electrochemical detection.
The BQL (below quantitation limit) in the DA concentration of dog 1 at day 10 was set to 0; 1n (0) was set to missing. The analysis was performed using a mixed model (using PROC MIXED) with the day and treatment categorical variables being fixed and the dog within treatment being a random factor. For the fixed effects, the interaction between the day and the treatment was included, since the difference between the drug and placebo groups varies from day to day. Contrasts were calculated using the CONTRAST statement, which correctly takes into account the error terms for each particular contrast. In particular, the contrasts comparing the treatment group to the […] uses the dog mean square for its error term, while the comparisons used to establish steady state are all within dog comparisons, and require the error mean square.
The time period of steady state was calculated using the Helmert transformation (cf. SAS PROC GLM manual). These transformations compare each treatment mean with the average of the treatment means of the time points following. The steady state period is defined to start at the first time point following the maximum time at which the Helmert contrast is statistically significant. However, since this method can fail to detect a smoothly changing process, as appears might be the case here, the slope of the analyte concentration during the steady state period also was calculated. The slope during the steady state period was calculated for each dog individually, yielding one slope per animal. Univariate statistics on the slopes were then calculated, with Normal theory confidence intervals built on the mean slope, and the hypothesis of slope equaling zero was tested, and its Normal theory p-value was calculated. […]

Another data set relates to normotensive Wistar rats. As to the kind of experiment: 7 day radio-telemetry study in normotensive Wistar rats. As for the experimental part:
Male Crl:COBS(WI)BR rats of 15 weeks old were used.
Both nepicastat and hydralazine were prepared in water with traces of Tween 80. All doses were given orally to the rat in 10 ml/kg and were expressed as free base equivalents.
All values were expressed as means±SEM. Statistical significance was defined as a p level of less than 0.05.
Body weights were recorded daily.

On to `Cl.NCc1c[nH]c(=S)n1[C@H]1CCc2c(F)cc(F)cc2C1` [nepicastat, (S)-5-Aminomethyl-1-(5,7-difluoro-1,2,3,4-tetrahydronaphth-2-yl)-2,3-dihydro-2-thioxo-1H-imidazole hydrochloride], for which, in the data set on anesthetized SHRs, the “calculated renal vascular resistance” value was “decreased”; the “renal blood flow, urine production, sodium and potassium excretion” value is recorded as “did not lower renal blood flow or alter urine production or urinary excretion of sodium or potassium”. The mean arterial pressure result with anesthetized SHRs (over 3 hours) was “decreased mean arterial pressure”. For the same compound, in data set [1], the “day of peak decrease in plasma EPI” value is 8 days, the “day of peak decrease in plasma NE” value amounted to 6 days, the “day of peak increase in plasma DA” value amounted to 7 days and the “day of peak increase in plasma DA/NE ratio” value worked out at 6 days. For the same compound, in data set [1], the “days of dosing until decrease in plasma noradrenaline attained significance” value is listed as 4 days, the “decrease in plasma EPI vs placebo” value amounted to 1.91 fold, the “decrease in plasma NE vs placebo” value is reported as 2.1 fold and the “increase in plasma DA vs placebo” value came to 7.5 fold. In data set [1], the “increase in plasma DA/NE ratio vs placebo” value turned out to be 13.6 fold, the “time of peak effect on plasma DA/NE ratio” value is 6 to 7 days, the “time to steady-state of effect on plasma DA” value was roughly 8 days post-dose and the “time to steady-state of effect on plasma EPI” value is roughly 6 days post-dose. In data set [1], the “time to steady-state of effect on plasma NE” value is listed as “approximately 4 days post-dose”. Also, the “peak decrease in blood pressure” value in the data set on normotensive Wistar rats (30 mg/kg/d, day 2) is −10 mmHg. In the data set with normotensive Wistar rats (100 mg/kg, 22 hr after dosing), the “peak antihypertensive response on day 1” value is on record as −11 mmHg.
